Data set [1] has as its system atopic dermatitis, ichthyosis and age-associated wrinkles. The conditions noted are these: in vivo; cited from earlier work.
Data set [2] is described as follows: interaction with water (water solubility). Type of data set: physicochemical. The following applies: 2 g in 100 ml distilled water. As for the experimental part:
For this test, 2 g of each sample was dissolved by heating in a beaker, 100 ml of distilled water at 70° C. was added and the mixture was stirred at the constant temperature of 70° C. for about 1 hour, after which it was allowed to cool and examined.

In the case of `O=C(O)C(O)C(O)C(=O)O` (centres unmarked) [tartaric acid], in data set [1], the “effect in skin conditions” value was “effective in atopic dermatitis, ichthyosis and reduction of age-associated wrinkles”. In the case of `O=C(O)CC(O)(CC(=O)O)C(=O)O` [citric acid], the “effect in skin conditions” value in data set [1] is “effective in atopic dermatitis, ichthyosis and reduction of age-associated wrinkles”.

In the case of `CC(O)C(=O)O` (centres unmarked) [lactic acid], the “effect in skin conditions” value in data set [1] was “effective in atopic dermatitis, ichthyosis and reduction of age-associated wrinkles”.

`CCCCCCCCCCCCCCCCCC(=O)OCC(O)CO` (centres unmarked) [GLYMSA, Glycerol monostearate]: the “Stability (in words)” value in data set [2] is given as “Phase separation on standing”. Moreover, the “Condition of aqueous solution” value in data set [2] (70° C., 1 hour, cooled) was “Emulsion”.
